# In PMC10387993, “New pyrimidine-N-β-D-glucosides: synthesis, biological evaluation, and molecular docking investigations” (Turkish Journal of Chemistry, 2023):
# Legend:
# Assay type in all cases: cell-based
# A549 = test: cells; conditions: Homo sapiens; for LC50 (concentration causing 50% net cell loss): A549, read-out: LC50; for GI50 / IC50 / IC (total growth inhibition): A549, MTT; for IC50: read-out: IC50; for IC (total growth inhibition): read-out: TGI
# Method in brief: (§1)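 Cells were seeded at about 1 × 10^4 per well, brought to 200 μL with medium, and assessed by MTT: 4 h with MTT reagent, formazan dissolved in DMSO with Sorenson's buffer, absorbance read at 560 nm (690 nm reference). IC50 derived from percent inhibition relative to DMSO.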
# C6 (Rat brain glioma) = test: cells; conditions: Rattus norvegicus; for LC50 (concentration giving 50% net cell loss relative to time zero): read-out: LC50; for GI50 / IC50 / IC (total growth inhibition): C6, MTT; for IC50: read-out: IC50; for IC (total growth inhibition): read-out: TGI
# Method in brief: as §1
# HT29 = test: cells; conditions: Homo sapiens; for LC50 (concentration giving 50% net cell loss relative to time zero): HT-29, read-out: LC50; for GI50 / IC50 / IC (total growth inhibition): HT-29, HT29, MTT; for IC50: read-out: IC50; for IC (total growth inhibition): read-out: TGI
# Method in brief: as §1
# HeLa = test: cells; conditions: Homo sapiens; for GI50 / IC50 / IC (total growth inhibition): MTT; for IC50: read-out: IC50; for IC (total growth inhibition): read-out: TGI; for LC50 (concentration causing 50% net cell loss): read-out: LC50
# Method in brief: as §1
# Hep3B = test: cells; conditions: Homo sapiens; for GI50 / IC50 / IC (total growth inhibition): MTT; for IC50: read-out: IC50; for IC (total growth inhibition): read-out: TGI; for LC50 (concentration causing 50% net cell loss relative to time zero): read-out: LC50
# Method in brief: as §1
# MCF7 = test: cells; conditions: Homo sapiens; for LC50 (concentration causing 50% net cell loss relative to time zero): MCF7, read-out: LC50; for GI50 / IC50 / IC (total growth inhibition): MCF7, MTT; for IC50: read-out: IC50; for IC (total growth inhibition): read-out: TGI
# Method in brief: as §1
# [1] = LDH cytotoxic activity assay, HeLa; conditions: human, HeLa cells
# Method in brief: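 About 5 × 10^3 cells per well, in triplicate, exposed to 25, 50, 75 and 100 μg/mL of test compound for 24 h at 37 °C, 5% CO2. Cells grown in DMEM or RPMI 1640 with 10% FBS. LDH activity read as absorbance at 492–630 nm.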
# [2] = system: A. actinomycetemcomitans ATCC 33384; test: Microdilution MIC assay; conditions: Aggregatibacter actinomycetemcomitans, ATCC33384; A. actinomycetemcomitans ATCC 33384, 24 h at 35 °C
# Method in brief: (§2)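 MICs come from a microwell dilution format incubated for 24 h at 35 °C, with the endpoint being the lowest concentration that prevented visible growth.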
# E. coli ATCC 25922 = test: Microdilution MIC assay; conditions: Escherichia coli, ATCC25922; E. coli ATCC 25922, 24 h at 35 °C
# Method in brief: as §2
# E. coli ESBL ATCC 35218 = test: Microdilution MIC assay; conditions: Escherichia coli, ATCC35218; E. coli ESBL ATCC 35218, 24 h at 35 °C
# Method in brief: as §2
# E. faecalis ATCC 29212 = test: Microdilution MIC assay; conditions: Enterococcus faecalis, ATCC29212, 24 h, E. faecalis ATCC 29212, 24 h at 35 °C; read-out: MIC
# Method in brief: as §2
# [3] = system: E. faecalis VRE ATCC 19433; test: Microdilution MIC assay; conditions: Enterococcus faecalis; E. faecalis VRE ATCC 19433, 24 h at 35 °C
# Method in brief: as §2
# [4] = system: P. aeruginosa AGME ATCC 27853; test: Microdilution MIC assay; conditions: Pseudomonas aeruginosa, ATCC27853; P. aeruginosa AGME ATCC 27853, 24 h at 35 °C
# Method in brief: as §2
# S. aureus ATCC 25923 = test: Microdilution MIC assay; conditions: Staphylococcus aureus, ATCC25923, 24 h, S. aureus ATCC 25923, 24 h at 35 °C; read-out: MIC
# Method in brief: as §2
# [5] = system: S. aureus MRSA ATCC 46300; test: Microdilution MIC assay; conditions: Staphylococcus aureus; S. aureus MRSA ATCC 46300, 24 h at 35 °C; read-out: MIC
# Method in brief: as §2
# S. gordonii NCTC 7870 = test: Microdilution MIC assay; conditions: Streptococcus gordonii, NCTC7870; S. gordonii NCTC 7870, 24 h at 35 °C
# Method in brief: as §2
# S. mutans ATCC 35668 = test: Microdilution MIC assay; conditions: Streptococcus mutans, ATCC35668, 24 h, S. mutans ATCC 35668, 24 h at 35 °C; read-out: MIC
# Method in brief: as §2
compound,measurement,setting,value
"CC(=O)OC[C@H]1O[C@@H](Nc2nc(-c3ccccn3)cc(-c3ccccc3C)n2)[C@H](OC(C)=O)[C@@H](OC(C)=O)[C@@H]1OC(C)=O [Compound 10, 2,3,4,6-tetra-O-acetyl-N-[4-(2-methylphenyl)-6-pyridin-2-ylpyrimidin-2-yl]-β-D-glucopyranosylamine]",LC50 (concentration causing 50% net cell loss),A549,> 500 µg/mL
same,GI50,A549,> 500 µg/mL
same,IC50,A549,> 500 µg/mL
same,IC (total growth inhibition),A549,> 500 µg/mL
same,LC50 (concentration giving 50% net cell loss relative to time zero),C6 (Rat brain glioma),486 µg/mL
same,GI50,C6 (Rat brain glioma),2.21 µg/mL
same,IC50,C6 (Rat brain glioma),21.9 µg/mL
same,IC (total growth inhibition),C6 (Rat brain glioma),9.19 µg/mL
same,LC50 (concentration giving 50% net cell loss relative to time zero),HT29,> 500 µg/mL
same,GI50,HT29,2.1 µg/mL
same,IC50,HT29,71.1 µg/mL
same,IC (total growth inhibition),HT29,> 500 µg/mL
same,GI50,HeLa,> 500 µg/mL
same,IC50,HeLa,> 500 µg/mL
same,IC (total growth inhibition),HeLa,> 500 µg/mL
same,LC50 (concentration causing 50% net cell loss),HeLa,> 500 µg/mL
same,GI50,Hep3B,7.53 µg/mL
same,IC50,Hep3B,> 500 µg/mL
same,IC (total growth inhibition),Hep3B,> 500 µg/mL
same,LC50 (concentration causing 50% net cell loss relative to time zero),Hep3B,> 500 µg/mL
same,LC50 (concentration causing 50% net cell loss relative to time zero),MCF7,> 500 µg/mL
same,GI50,MCF7,1.66 µg/mL
same,IC50,MCF7,> 500 µg/mL
same,IC (total growth inhibition),MCF7,> 500 µg/mL
same,"cytotoxicity at 24 h, 25 μg/mL",[1],16.8%
same,"cytotoxicity at 24 h, 50 μg/mL",[1],40.7%
same,"cytotoxicity at 24 h, 75 μg/mL",[1],51.7%
same,"cytotoxicity at 24 h, 100 μg/mL",[1],58.4%
same,MIC,[2],> 1000 µg/mL
same,MIC,E. coli ATCC 25922,> 1000 µg/mL
same,MIC,E. coli ESBL ATCC 35218,> 1000 µg/mL
same,MIC,E. faecalis ATCC 29212,500 µg/mL
same,MIC,[3],125 µg/mL
same,MIC,[4],> 1000 µg/mL
same,MIC,S. aureus ATCC 25923,> 1000 µg/mL
same,MIC,[5],1000 µg/mL
same,MIC,S. gordonii NCTC 7870,> 1000 µg/mL
same,MIC,S. mutans ATCC 35668,500 µg/mL
"Cc1ccc(-c2cc(-c3ccncc3)nc(N[C@@H]3O[C@H](CO)[C@@H](O)[C@H](O)[C@H]3O)n2)cc1 [Compound 9, N-[4-(4-methylphenyl)-6-pyridin-4-ylpyrimidin-2-yl]-β-D-glucopyranosylamine]",LC50 (concentration causing 50% net cell loss),A549,> 500 µg/mL
same,GI50,A549,> 500 µg/mL
same,IC50,A549,> 500 µg/mL
same,IC (total growth inhibition),A549,> 500 µg/mL
same,LC50 (concentration giving 50% net cell loss relative to time zero),C6 (Rat brain glioma),> 500 µg/mL
same,GI50,C6 (Rat brain glioma),> 500 µg/mL
same,IC50,C6 (Rat brain glioma),> 500 µg/mL
same,IC (total growth inhibition),C6 (Rat brain glioma),> 500 µg/mL
same,LC50 (concentration giving 50% net cell loss relative to time zero),HT29,> 500 µg/mL
same,GI50,HT29,4.3 µg/mL
same,IC50,HT29,> 500 µg/mL
same,IC (total growth inhibition),HT29,> 500 µg/mL
same,GI50,HeLa,> 500 µg/mL
same,IC50,HeLa,> 500 µg/mL
same,IC (total growth inhibition),HeLa,> 500 µg/mL
same,LC50 (concentration causing 50% net cell loss),HeLa,> 500 µg/mL
same,GI50,Hep3B,4.61 µg/mL
same,IC50,Hep3B,> 500 µg/mL
same,IC (total growth inhibition),Hep3B,> 500 µg/mL
same,LC50 (concentration causing 50% net cell loss relative to time zero),Hep3B,> 500 µg/mL
same,LC50 (concentration causing 50% net cell loss relative to time zero),MCF7,> 500 µg/mL
same,GI50,MCF7,1.89 µg/mL
same,IC50,MCF7,> 500 µg/mL
same,IC (total growth inhibition),MCF7,> 500 µg/mL
same,"cytotoxicity at 24 h, 25 μg/mL",[1],10%
same,"cytotoxicity at 24 h, 50 μg/mL",[1],34.3%
same,"cytotoxicity at 24 h, 75 μg/mL",[1],49.6%
same,"cytotoxicity at 24 h, 100 μg/mL",[1],55.9%
same,MIC,[2],500 µg/mL
same,MIC,E. coli ATCC 25922,> 1000 µg/mL
same,MIC,E. coli ESBL ATCC 35218,> 1000 µg/mL
same,MIC,E. faecalis ATCC 29212,1000 µg/mL
same,MIC,[3],1000 µg/mL
same,MIC,[4],> 1000 µg/mL
same,MIC,S. aureus ATCC 25923,1000 µg/mL
same,MIC,[5],1000 µg/mL
same,MIC,S. gordonii NCTC 7870,1000 µg/mL
same,MIC,S. mutans ATCC 35668,250 µg/mL
"Cc1ccccc1-c1cc(-c2ccncc2)nc(N[C@@H]2O[C@H](CO)[C@@H](O)[C@H](O)[C@H]2O)n1 [Compound 3, N-[4-(2-methylphenyl)-6-pyridin-4-ylpyrimidin-2-yl]-β-D-glucopyranosylamine]",LC50 (concentration causing 50% net cell loss),A549,> 500 µg/mL
same,GI50,A549,6.49 µg/mL
same,IC50,A549,> 500 µg/mL
same,IC (total growth inhibition),A549,> 500 µg/mL
same,LC50 (concentration giving 50% net cell loss relative to time zero),C6 (Rat brain glioma),252 µg/mL
same,GI50,C6 (Rat brain glioma),4.37 µg/mL
same,IC50,C6 (Rat brain glioma),33.5 µg/mL
same,IC (total growth inhibition),C6 (Rat brain glioma),17.4 µg/mL
same,LC50 (concentration giving 50% net cell loss relative to time zero),HT29,> 500 µg/mL
same,GI50,HT29,2.22 µg/mL
same,IC50,HT29,78.4 µg/mL
same,IC (total growth inhibition),HT29,230 µg/mL
same,GI50,HeLa,> 500 µg/mL
same,IC50,HeLa,> 500 µg/mL
same,IC (total growth inhibition),HeLa,> 500 µg/mL
same,LC50 (concentration causing 50% net cell loss),HeLa,> 500 µg/mL
same,GI50,Hep3B,3.83 µg/mL
same,IC50,Hep3B,> 500 µg/mL
same,IC (total growth inhibition),Hep3B,> 500 µg/mL
same,LC50 (concentration causing 50% net cell loss relative to time zero),Hep3B,> 500 µg/mL
same,LC50 (concentration causing 50% net cell loss relative to time zero),MCF7,> 500 µg/mL
same,GI50,MCF7,2.23 µg/mL
same,IC50,MCF7,> 500 µg/mL
same,IC (total growth inhibition),MCF7,> 500 µg/mL
same,"cytotoxicity at 24 h, 25 μg/mL",[1],16.3%
same,"cytotoxicity at 24 h, 50 μg/mL",[1],33.4%
same,"cytotoxicity at 24 h, 75 μg/mL",[1],40.6%
same,"cytotoxicity at 24 h, 100 μg/mL",[1],56.9%
same,MIC,[2],500 µg/mL
same,MIC,E. coli ATCC 25922,> 1000 µg/mL
same,MIC,E. coli ESBL ATCC 35218,> 1000 µg/mL
same,MIC,E. faecalis ATCC 29212,> 1000 µg/mL
same,MIC,[3],> 1000 µg/mL
same,MIC,[4],> 1000 µg/mL
same,MIC,S. aureus ATCC 25923,500 µg/mL
same,MIC,[5],1000 µg/mL
same,MIC,S. gordonii NCTC 7870,1000 µg/mL
same,MIC,S. mutans ATCC 35668,500 µg/mL
